The IC50 is the concentration that gives 50% inhibition.

The results in this text go back to US6906175B2, “Production of adenine nucleotide translocator (ANT), novel ANT ligands and screening assays therefor” (priority 1998, dated 2005).

Test [1] concerns the target T1, GST-huANT3 recombinantly produced in E. coli (membranes) (Homo sapiens, UniProt P12236).
T1 construct: Gly-Ser-Pro-Gly-Ile-Leu-Met, where “Met” indicates the amino acid encoded by the translation initiation codon of huANT3; made in house; host or cells: E. coli (crude membrane preparation)
T1 sequence (P12236 1-298): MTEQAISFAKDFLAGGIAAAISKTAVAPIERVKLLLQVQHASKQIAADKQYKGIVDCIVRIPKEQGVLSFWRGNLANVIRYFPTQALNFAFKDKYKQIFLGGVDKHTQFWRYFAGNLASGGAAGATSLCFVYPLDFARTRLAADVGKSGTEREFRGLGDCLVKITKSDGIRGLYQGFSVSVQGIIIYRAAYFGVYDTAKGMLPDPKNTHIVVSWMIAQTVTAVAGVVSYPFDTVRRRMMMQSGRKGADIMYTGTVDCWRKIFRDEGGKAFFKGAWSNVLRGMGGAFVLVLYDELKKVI
Briefly: Saturation binding of [32P]ATP to E. coli membranes, huANT3-producing cells. Particulars: atractyloside 10μM added to the assay. On the procedure:
Following arabinose induction, transformed or sham transformed (vector only) E coli were collected by centrifugation at 2000 g for 10 min. The bacterial pellets were resuspended in MSB, to which lysozyme (100 μg/ml) was added. After 20 min at room temperature, the lysates were subjected to one freeze-thaw cycle followed by sonication as described above. The resultant membrane preparation was used for binding assays.
[…] The membranes with bound ATP were sedimented by centrifugation at 5000 g for 5 min, and washed once with binding buffer. Membrane pellets were then mixed with 5 ml scintillation cocktail and counted.

The next test concerns the target T2, His-tagged huANT3 (Homo sapiens, UniProt P12236).
T2 sequence (P12236 1-298): T1 sequence (P12236 1-298)
Briefly: 125I-compound 24 competition binding to recombinant His-tagged huANT3 immobilized on Ni beads. As to conditions: His-tagged huANT3 on Ni-agarose beads, 1 hour at 4° C.; FIG. 19. Set-up: made in house; host or cells: baculovirus-infected Trichoplusia ni cells; mitochondria solubilized and captured on Ni-agarose beads (Qiagen). On the procedure: Competitive binding assays were also performed using recombinant His-tagged huANT3 (see Example 3) immobilized on Ni beads (FIG. 19) instead of mitochondria. To prepare the bead-immobilized huANT3, mitochondria from T. ni cells infected with a baculovirus expressing huANT3 (see Example 3) were solubilized with 0.5% O-glucopyranoside in the presence of 0.5 nM ^125I-compound 24 Ni-agarose beads (Qiagen, Hilden, Germany), and various concentrations of ATR or BKA as unlabeled competitors. After 1 hour at 4° C., the beads were washed and radioactivity that remained associated with the beads was counted.

Test [2] addresses T3, bovine mitochondria (ANT) (Bos taurus, UniProt P02722).
T3 construct: from tissue; host or cells: bovine heart mitochondria
T3 sequence (P02722 2-298 limits assumed): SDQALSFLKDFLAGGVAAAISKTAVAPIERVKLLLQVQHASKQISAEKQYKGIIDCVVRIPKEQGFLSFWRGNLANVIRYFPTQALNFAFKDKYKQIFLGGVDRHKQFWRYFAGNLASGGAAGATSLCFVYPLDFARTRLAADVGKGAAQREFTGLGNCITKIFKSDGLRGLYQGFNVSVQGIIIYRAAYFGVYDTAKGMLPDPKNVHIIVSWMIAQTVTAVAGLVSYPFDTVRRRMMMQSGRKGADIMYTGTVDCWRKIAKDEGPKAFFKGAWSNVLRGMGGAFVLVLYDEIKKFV
As to the kind of experiment: 125I-compound 24 competition binding (Tube Assay), beef heart mitochondria. The protocol: Bovine mitochondria were prepared as follows: Essentially all of the fat and cholesterol […] was removed from two bovine hearts which were then cut into 1-inch cubes. The cubes were ground in a meat grinder using the fine setting. Three hundred (300) […] portions of the ground heart were weighed out and, to each was added 400 ml of Isolation Buffer (IB; 250 mM sucrose, 1 mM sodium succinate, 0.2 mM K^+EDTA, 10 mM Tris-base, pH 7.8). (All buffers were filter sterilized, and column buffers were degassed, and, unless otherwise noted, all steps were carried out at 0 to 4° C. on ice or in pre-cooled rotors and centrifuges.) The preparations were mixed in a blender two times for 15 seconds on high setting and, in between and after blends, the pH was adjusted to 7.8 with 2M Tris-base. The homogenate was centrifuged for 20 minutes at 1,200×g, and the supernatant was poured through two layers of cheese cloth and adjusted to pH 7.8 with 2M Tris-base. The supernatant was then centrifuged for 30 minutes at […]. The supernatant was decanted, and the buff-colored outer pellet was dislodged with about 10 ml of IB and discarded. The brown inner pellet (heavy mitochondria) was resuspended in IB (about 10 ml per pellet). The pellets were homogenized in a glass-teflon homogenizer (2 passes at high drill speed). Samples were combined and centrifuged for 30 minutes at 11,000×g. The supernatant was decanted, and the pellets were resuspended in 60 ml of IB per 900 gm of ground heart. This centrifugation step was repeated and the pellets were finally resuspended in IB (60 ml per 900 gm of ground heart). One kilogram of beef heart typically yields about one (1) gram of mitochondria
The mitochondrial preparations were divided into aliquots (typically, 50μl for T. ni mitochondria or 20 μl for bovine mitochondria) and then either used directly in assays or flash frozen and stored at −80° C. The total protein content in the mitochondrial preparations was determined using the enhanced protocol (30 minutes at 60° C.; see http://www.ruf.rice.edu/˜bioslabs/methods/protein/BCA.html) of the bicinchoninic acid (BCA) assay (available in kit form from Pierce, Rockford, Ill.).
In the “Tube Assay,” mitochondria (from about 1 to 10 μg of total protein) were resuspended in 100 μl of Tris-KCl buffer with 0.1% BSA, pH 7.4. ^125I-labeled compound 24 (Example 11) was added to a final concentration of 0.5 nM. When used, competitors were added at these concentration ranges: unlabeled atractyloside or compound 24 final concentration from 5 nM to 10 μM; unlabeled ADP (a lower affinity competitor) was added at a final concentration of 500 nM to 1 mM.
The reaction mixes were incubated on ice for 60 minutes and then pelleted by centrifugation (approximately 16,000×g) for 11 minutes at 4° C.
Unbound ^125I-compound 24 was removed by aspiration. The pellets were contact-washed with Tris-KCl buffer, pH 7.4, and recentrifuged. The resultant pellets were aspirated and the radioactivity (dpm) in each was determined by gamma counting.

SMILES strings stand for the structures.

As for `C=C1[C@@H]2CCC3[C@@](CC[C@@H]4[C@H](C(=O)O)C[C@@H](O[C@@H]5O[C@H](CO)[C@@H](OS(=O)(=O)[O-])[C@H](OS(=O)(=O)[O-])[C@H]5OC(=O)CC(C)C)C[C@@]34C)(C2)[C@@H]1O.[K+].[K+]` (some centres unmarked) [ATR, atractyloside], the “effect on ATP binding” value in test [1] is recorded as “abolished”. The “competitive inhibition of 125I-compound 24 binding (in words)” value is “effectively compete with compound 24” on His-tagged huANT3 and “slightly higher affinity than compound 24” in test [2] (FIGS. 11, 13, 16). Moreover, the concentration for half-maximal inhibition (IC50) in test [2] (0.5 nM 125I-compound 24, FIG. 17, read-out: IC50, competitive inhibition of 125I-compound 24 binding) was approximately 44 nM. For the same compound, the “affinity relative to the low affinity ANT ligand ADP” value in test [2] (1 μg protein/tube, FIG. 13) is “about 1,000 fold”.
